Measured values taken from publication PMC8881077 (Journal of Enzyme Inhibition and Medicinal Chemistry, 2022).
Read-outs that look alike come from different tables or passages of the source.

Tests used:
[1] = for ORAC: Trolox as standard
Method: The skeleton compounds naringenin and apigenin were also evaluated for comparison purposes, and vitamin E analogue Trolox was used as a standard.
The antioxidant potency of target compounds was tested using an oxygen radical absorbance capacity fluorescein (ORAC-FL) assay.

[2] = molecular target: T1, ratAChE (Rattus norvegicus, UniProt P37136); experiment: biochemical; settings: for SI: Selectivity Index = IC50 (BuChE)/IC50 (AChE), rat enzymes; for IC50: from 5% rat cortex homogenate
T1 construct: AChE from 5% rat cortex homogenate or human erythrocytes (Sigma Co.); from tissue; host or cells: 5% rat cortex homogenate
T1 sequence (P37136 32-614): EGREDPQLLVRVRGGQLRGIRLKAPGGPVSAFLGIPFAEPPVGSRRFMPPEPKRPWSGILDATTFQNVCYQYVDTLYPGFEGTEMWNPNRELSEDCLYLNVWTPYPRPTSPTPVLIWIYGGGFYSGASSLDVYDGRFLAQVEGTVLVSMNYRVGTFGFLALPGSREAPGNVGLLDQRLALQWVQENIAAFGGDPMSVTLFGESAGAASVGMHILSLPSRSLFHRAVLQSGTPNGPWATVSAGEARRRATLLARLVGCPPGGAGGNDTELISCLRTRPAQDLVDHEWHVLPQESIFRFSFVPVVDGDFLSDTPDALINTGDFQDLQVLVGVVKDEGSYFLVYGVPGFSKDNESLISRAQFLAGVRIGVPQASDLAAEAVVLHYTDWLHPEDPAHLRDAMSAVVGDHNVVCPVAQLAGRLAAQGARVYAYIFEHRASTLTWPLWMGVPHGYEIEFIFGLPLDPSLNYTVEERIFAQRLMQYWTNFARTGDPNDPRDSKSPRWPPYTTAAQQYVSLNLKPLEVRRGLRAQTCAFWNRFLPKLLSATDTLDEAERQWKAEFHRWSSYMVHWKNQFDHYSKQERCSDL
Method: (§1) The AChE and BuChE inhibitory activities of the synthesised compounds were evaluated using the Ellman assay with slight modification. AChE from 5% rat cortex homogenate or human erythrocytes (Sigma Co.). BuChE from rat serum or human serum (Sigma Co.).

[3] = molecular target: T2, ratBuChE (Rattus norvegicus, UniProt Q9JKC1); experiment: ratBuChE inhibition, modified Ellman's method; type: biochemical
T2 construct: BuChE from rat serum or human serum (Sigma Co.); from tissue; host or cells: rat serum
T2 sequence (Q9JKC1 24-597): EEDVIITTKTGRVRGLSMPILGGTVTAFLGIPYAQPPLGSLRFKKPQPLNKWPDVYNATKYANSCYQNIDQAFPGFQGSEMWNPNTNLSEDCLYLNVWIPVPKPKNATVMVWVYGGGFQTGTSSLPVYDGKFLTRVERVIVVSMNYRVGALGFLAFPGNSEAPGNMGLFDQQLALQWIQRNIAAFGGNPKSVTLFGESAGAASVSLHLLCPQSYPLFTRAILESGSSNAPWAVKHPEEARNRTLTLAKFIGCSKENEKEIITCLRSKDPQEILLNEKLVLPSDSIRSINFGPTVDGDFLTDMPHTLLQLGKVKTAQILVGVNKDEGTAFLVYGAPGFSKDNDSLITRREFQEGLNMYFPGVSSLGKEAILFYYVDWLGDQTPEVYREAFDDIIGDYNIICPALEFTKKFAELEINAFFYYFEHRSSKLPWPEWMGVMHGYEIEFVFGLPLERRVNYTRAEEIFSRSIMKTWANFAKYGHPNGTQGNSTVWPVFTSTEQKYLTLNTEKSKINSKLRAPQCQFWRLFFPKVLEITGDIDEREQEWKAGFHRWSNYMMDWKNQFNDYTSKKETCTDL
Method: as §1

[4] = molecular target: T3, huBuChE (Homo sapiens, UniProt P06276); experiment: biochemical; type: biochemical; settings: from human serum; read-out: IC50 ± SD huBuChE
T3 construct: BuChE from rat serum or human serum (Sigma Co.); purchased Sigma Co; host or cells: human serum
T3 sequence (P06276 29-602): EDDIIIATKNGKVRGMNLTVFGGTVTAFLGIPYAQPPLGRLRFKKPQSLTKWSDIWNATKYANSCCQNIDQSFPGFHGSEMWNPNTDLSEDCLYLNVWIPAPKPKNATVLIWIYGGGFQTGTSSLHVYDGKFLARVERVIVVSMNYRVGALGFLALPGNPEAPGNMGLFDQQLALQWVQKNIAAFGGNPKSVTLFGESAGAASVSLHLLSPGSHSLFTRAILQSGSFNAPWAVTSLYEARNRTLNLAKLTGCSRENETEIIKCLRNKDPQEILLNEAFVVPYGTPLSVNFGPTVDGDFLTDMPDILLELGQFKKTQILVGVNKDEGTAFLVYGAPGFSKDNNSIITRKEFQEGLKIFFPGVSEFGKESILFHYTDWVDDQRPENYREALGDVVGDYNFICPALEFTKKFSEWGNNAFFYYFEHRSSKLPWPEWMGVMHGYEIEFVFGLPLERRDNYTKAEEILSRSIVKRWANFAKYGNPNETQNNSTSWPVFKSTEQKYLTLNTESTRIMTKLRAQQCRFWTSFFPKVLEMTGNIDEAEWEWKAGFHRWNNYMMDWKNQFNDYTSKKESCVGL
Method: as §1

[5] = molecular target: huAChE (Homo sapiens, UniProt P22303); experiment: biochemical; type: biochemical; parameters: AChE from 5% rat cortex homogenate or human erythrocytes (Sigma Co.); purchased Sigma Co; host or cells: human erythrocytes; settings: for SI: Selectivity Index = IC50 (BuChE)/IC50 (AChE), human enzymes; for IC50: from human erythrocytes, read-out: IC50 ± SD huAChE
Chain of huAChE (P22303 32-617 isoform P22303-2 limits assumed): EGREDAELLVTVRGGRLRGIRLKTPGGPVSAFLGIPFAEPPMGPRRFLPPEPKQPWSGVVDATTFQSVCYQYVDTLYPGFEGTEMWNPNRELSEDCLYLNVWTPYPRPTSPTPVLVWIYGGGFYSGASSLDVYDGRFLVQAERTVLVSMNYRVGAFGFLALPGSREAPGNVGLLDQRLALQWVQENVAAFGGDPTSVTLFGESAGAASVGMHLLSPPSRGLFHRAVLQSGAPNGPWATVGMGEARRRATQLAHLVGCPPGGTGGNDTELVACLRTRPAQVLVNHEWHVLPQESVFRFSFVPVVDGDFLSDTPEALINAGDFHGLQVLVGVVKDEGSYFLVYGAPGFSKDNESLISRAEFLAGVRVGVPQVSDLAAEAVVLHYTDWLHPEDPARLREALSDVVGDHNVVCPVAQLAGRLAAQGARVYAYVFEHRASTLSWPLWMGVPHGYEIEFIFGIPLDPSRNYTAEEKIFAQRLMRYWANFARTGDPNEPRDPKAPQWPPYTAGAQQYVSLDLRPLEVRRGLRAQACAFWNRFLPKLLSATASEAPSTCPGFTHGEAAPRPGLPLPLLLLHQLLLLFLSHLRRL
Method: as §1

[6] = in vitro; settings: PAMPA
[7] = molecular target: T4, Aβ1–42 (Homo sapiens, UniProt P05067); experiment: Cu^2+-induced Aβ1–42 aggregation, ThT fluorescence; type: biochemical; settings: tested compounds and Aβ1–42 25 μM
T4 sequence (P05067 672-713): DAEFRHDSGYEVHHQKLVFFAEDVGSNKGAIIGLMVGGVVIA
Method: Curcumin was also tested as a referenced compound.
(§2) The Thioflavin T-based flurometric assay was employed to test the inhibition potency on self-induced/Cu^2+-induced Aβ1-42 aggregation.

[8] = molecular target: T4, Aβ1–42; experiment: Self-induced Aβ1–42 aggregation, Thioflavin T fluorescence; type: biochemical; settings: tested compounds and Aβ1–42 25 μM
From the text: as §2

[9] = test system: scopolamine-induced mice memory impairment; experiment: Step-down passive avoidance task; settings: 5 mg/kg, scopolamine 3 mg/kg
Method: Sixty mice were randomly divided into six groups. […] After 30 min, memory impairment was induced by administering scopolamine (3 mg/kg).

[10] = cited from earlier work

Row | Structure (SMILES) | ORAC [1] | SI [2] | IC50 ([2]; read-out: IC50 ± SD ratAChE) [nM] | IC50 [3] [nM] | IC50 [4] [nM] | SI [5] | IC50 [5] [nM] | other results
1 | CCN(CCCCOc1ccc(-c2cc(=O)c3c(O)cc(OCCCCN(CC)Cc4ccccc4)cc3o2)cc1)Cc1ccccc1 [Compound 10h, 7–(4-(benzyl(ethyl)amino)butoxy)-2–(4-(4-(benzyl(ethyl)amino)butoxy)phenyl)-5-hydroxy-4H-chromen-4-one] | 1.1 ± 0.03 μM of Trolox equivalent/μM of tested compound | 14.0 | 920 ± 60 | 12900 ± 510 | 3700 ± 60 | 23.1 | 160 ± 10 | –
2 | CCN(CCCCCOc1ccc(-c2cc(=O)c3c(O)cc(OCCCCCN(CC)Cc4ccccc4)cc3o2)cc1)Cc1ccccc1 [Compound 10k, 7-((5-(benzyl(ethyl)amino)pentyl)oxy)-2–(4-((5-(benzyl(ethyl)amino)pentyl)oxy)phenyl)-5-hydroxy-4H-chromen-4-one] | 1.1 ± 0.02 μM of Trolox equivalent/μM of tested compound | 16.4 | 810 ± 50 | 13300 ± 270 | 4500 ± 120 | 34.6 | 130 ± 10 | –
3 | CCN(CCCCCOc1ccc(-c2cc(=O)c3c(O)cc(OCCCCCN(CC)Cc4ccccc4OC)cc3o2)cc1)Cc1ccccc1OC [Compound 10l, 7-((5-(ethyl(2-methoxybenzyl)amino)pentyl)oxy)-2–(4-((5-(ethyl(2-methoxybenzyl)amino)pentyl)oxy)phenyl)-5-hydroxy-4H-chromen-4-one] | 1.3 ± 0.03 μM of Trolox equivalent/μM of tested compound | 23.2 | 620 ± 50 | 14400 ± 320 | 2200 ± 180 | 24.4 | 90 ± 2 | –
4 | CCn1cc(C(=O)O)c(=O)c2cc(F)c(N3CCNCC3)cc21 [Norfloxacin, reference compound] | – | – | – | – | – | – | – | Papp at 100 μg/mL [6]: 0.13 ± 0.01 ×10⁻⁶ cm/s
5 | COc1cc(/C=C/C(=O)CC(=O)/C=C/c2ccc(O)c(OC)c2)ccc1O [curcumin, reference compound] | – | – | – | – | – | – | – | inhibition at 25 µM [7]: 50.6 ± 0.33%; inhibition at 25 µM [8]: 45.9 ± 0.67%
6 | COc1cc2c(cc1OC)C(=O)C(CC1CCN(Cc3ccccc3)CC1)C2 (stereo not drawn) [donepezil, reference compound] | – | – | – | – | – | – | – | step-down latency [9]: 219.4 s
7 | O=C1CC(c2ccc(O)cc2)Oc2cc(O)cc(O)c21 (stereo not drawn) [naringenin, 5,7-dihydroxy-2–(4-hydroxyphenyl)-2,3-dihydrochromen-4-one, reference compound] | 5.2 ± 0.29 μM of Trolox equivalent/μM of tested compound | – | – | > 50000 | – | – | – | ORAC values [1]: 5.2 eq; IC50 ([2]; IC50 ± SD ratAChE): > 50000 nM; oral bioavailability [10]: 15%
